Results taken from patent US20260335282A1, “NOVEL 3-ARYLIDENE-2-INDOLINONE DERIVATIVES FOR THERAPEUTIC USE” (ISTANBUL UNIVERSITESI REKTORLUGU, priority 2022, published 2026).
Read-outs that look alike come from different tables or passages of the source.

Columns and labels:
HCT-116 cells = assay: MTT cytotoxicity, colon cancer cells HCT-116; type: cell-based, human
Procedure, shortened: (§1)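 Cells were seeded at 5000 per well and treated next day with compound at 0.1, 1, 5 and 10 μM (final) for 48 and/or 72 h, with matched DMSO controls. MTT was added for 4 h and formazan was dissolved in DMSO and read at 570/630 nm. % viability against control gave IC50 from dose-response curves.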

HT-29 cells = assay: MTT cytotoxicity, colon cancer cells HT-29; type: cell-based, human; settings: MTT
Procedure, shortened: as §1

A549 cells = assay: MTT cytotoxicity, lung cancer cells A549; type: cell-based, human
Procedure, shortened: (§2)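 Viability was quantified by MTT reduction following 48 and/or 72 h compound exposure at four concentrations (0.1, 1, 5, 10 μM). Values are percentages of DMSO-treated controls, with IC50 fitted from dose-response data.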

A498 cells [1] = assay: Apoptosis/necrosis detection, Annexin V/PI flow cytometry, A498; type: cell-based, human; settings: A498
Description: (§3) After incubation with 2-indolinone compounds (IC50 μM concentration; 48 and/or 72 hours), cells are washed twice with PBS and the cell pellet is suspended in Annexin V binding buffer. After this incubation, cells are incubated with FITC-conjugated Annexin V and propidium iodine staining solution for 15 minutes in the dark and at room temperature. Then, cells are analyzed by flow cytometry (Beckman coulter, Navios) (Wlodkowic, D., Skommer, J, Darzynkiewicz, Z. 2009. Flow cytometry-based apoptosis detection, Methods Mol Biol., 559, 1-14).

MCF-7 cells = assay: MTT cytotoxicity, breast cancer cells MCF-7; type: cell-based, human; settings: MTT
Procedure, shortened: as §2

MDA-MB-231 cells = assay: MTT cytotoxicity, breast cancer cells MDA-MB-231; type: cell-based, human; settings: MTT, no * mark (incubation time not given)
Procedure, shortened: as §2

HUVEC cells = assay: MTT cytotoxicity, healthy cells HUVEC; type: cell-based, human; settings: for IC50: MTT
Procedure, shortened: as §2

MIAPaCa-2 cells [2] = assay: MTT cytotoxicity, pancreas cancer cells MIAPaCa-2; type: cell-based, human
Procedure, shortened: as §1

MIAPaCa-2 cells [3] = assay: Apoptosis/necrosis detection, Annexin V/PI flow cytometry, MiaPaca-2; type: cell-based, human
Description: as §3

A498 cells [4] = assay: MTT cytotoxicity, kidney cancer cells A498; type: cell-based, human; settings: for IC50: MTT
Procedure, shortened: as §2

CAKI-1 cells = assay: MTT cytotoxicity, kidney cancer cells CAKI-1; type: cell-based, human
Procedure, shortened: as §2

[5] = system: BL6-B16 melanoma and E0771 breast cancer cells; settings: Morigi et al. 2019; cited from earlier work
[6] = system: general tyrosine kinase activity in A498 kidney cancer cells; assay: General tyrosine kinase activity (ELISA) in A498 cells; type: cell-based, human; settings: 72 h, IC50 concentration
Description: Takara Universal Tyrosine Kinase Assay Kit is used to determine the effects of 11 2-indolinone compounds (Y1, Y2, Y3, Y4, Y5, Y8, […], […], Y21, Y23, 20C, 22C) on general tyrosine kinase activity in cancer cells. Cells are seeded in 6-well plates (4.10^5 cells/well) and the IC50 concentration of each selected molecule is performed to the cells for 48 or 72 hours. Cells in the control group are incubated with medium only. At the end of the incubation period, the cells in each well are washed with PBS and cells are removed from the wells using a cell scraper via 1 ml of the extraction buffer in the kit. The cell lysate is transferred to ependorf tubes and centrifuged at 10.000 g for 10 minutes at +4° C. and the supernatant is used as a sample for activity determination. After the extracts obtained from the control and experimental groups are diluted 1:25, 40 μl extracts is transferred to two wells in the 96-well plate in the kit. In addition, the standard solution in the kit is diluted according to the kit instructions and each concentration is transferred 40 μl into three wells. 10 μl of 40 mM ATP-2Na solution is added to all wells and the plate is incubated at 37° C. for 30 minutes. […] The reaction is finished by adding 100 μl of stop solution to each well and the optical density in each well is measured at 405 nm with a microplate reader (BioTek, USA). The tyrosine kinase activity in each sample is calculated from the standard curve obtained from the absorbance values of the standard solutions with the kit (Chan W Y, Lau P M, Yeung K W, Kong S K. The second generation tyrosine kinase inhibitor dasatinib induced eryptosis in human erythrocytes—An in vitro study. Toxicol Lett. 2018; 295:10-21). […]
The effects of 11 2-indolinone compounds (Y1, Y2, Y3, Y4, Y5, Y8, Y14, Y21, Y23, 20C and 22C) having the structure of formula (5), which are prominent with their cytotoxicity in A498, MIAPaCa-2 and HCT-116 cancer cell lines and nontoxic properties in healthy cells, on general tyrosine kinase activity in cancer cells are determined.

MCF-10F/Beas2b cells = assay: MTT cytotoxicity, healthy cells MCF-10F/Beas2b; type: cell-based, human; settings: MCF-10F/Beas2b vs breast or kidney cancer cells; cancer line not given
Procedure, shortened: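 Following seeding and next-day dosing at 0.1, 1, 5 and 10 μM, plates incubate 48 and/or 72 h. MTT is then applied for 4 h and dissolved crystals measured at 570 nm (630 nm reference); cell-free compound+MTT wells control for interference, and IC50 is calculated per compound.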

[7] = MTT, no * mark (incubation time not specified)
[8] = no * mark (incubation time not specified)

CCN(CC)CCNC(=O)c1c(C)[nH]c(/C=C2\C(=O)Nc3ccc(F)cc32)c1C [Sunitinib malate, reference compound]
IC50 (HCT-116 cells; Homo sapiens, HCT-116, no * mark (incubation time not given)): 1780 nM | IC50 (HT-29 cells; Homo sapiens, HT-29, no * mark (incubation time not given)): 2.94 µM | IC50 (A549 cells; Homo sapiens, A549, no * mark (incubation time not given)): > 10 µM | necrosis compared to control (A498 cells [1]): no increase or decrease | viability, early apoptosis and late apoptosis compared to control (A498 cells [1]; Y3 at IC50, sunitinib malate 10 μM): 10 μM dose is found to be the most significant | IC50 (MCF-7 cells; Homo sapiens, MCF7, no * mark (incubation time not given)): 9.78 µM | IC50 (MDA-MB-231 cells; Homo sapiens, MDA-MB-231, read-out: IC50, MDA-MB-231 (breast)): > 10 µM | IC50 (HUVEC cells; Homo sapiens, HUVEC, no * mark (incubation time not given)): 2.94 µM | IC50 (MIAPaCa-2 cells [2]; Homo sapiens, MIA PaCa-2, 72 h, MTT, *: effective 72 hours after incubation): 4030 nM | IC50 (MIAPaCa-2 cells [2]; Homo sapiens, MIA PaCa-2, MTT, no * mark (incubation time not given)): 610 nM | IC50 (MIAPaCa-2 cells [2]; [7]): 1180 nM | necrosis compared to control (MIAPaCa-2 cells [3]; MiaPaca-2): did not cause necrosis | apoptosis (early and late) compared to control (MIAPaCa-2 cells [3]; MiaPaca-2, IC50 values): increase in apoptosis at IC50 values was statistically significant | IC50 (A498 cells [4]; Homo sapiens, A498, 72 h, *: effective 72 hours after incubation): 3.46 µM | IC50 (A498 cells [4]; [8]): 3.71 µM | IC50 (A498 cells [4]; no * mark (incubation time not specified), listed as sunitinib malate): > 10 µM | IC50 (CAKI-1 cells; Homo sapiens, CAKI-1, no * mark (incubation time not given)): 5.13 µM

O=C1Nc2ccccc2/C1=C/c1nc2sccn2c1-c1ccncc1 [I]
tumor volume [5]: reduction in tumor volume

Cn1cc(/C=C2\C(=O)N(Cc3ccccc3)c3ccc(Cl)cc32)c2ccccc21 [Y23]
IC50 (HCT-116 cells; [8]): 1620 nM | IC50 (HT-29 cells; [8]): 4.18 µM | IC50 (A549 cells; [8]): > 10 µM | IC50 (MCF-7 cells; [8]): 4.9 µM | IC50 (MDA-MB-231 cells; read-out: IC50, MDA-MB-231 (breast)): 4.72 µM | Selectivite Index (SI), HUVEC (Table 1) (HUVEC cells; HUVEC vs breast or kidney cancer cells, cancer line not given): 4.70 | IC50 (HUVEC cells; [8]): 4.18 µM | IC50 (MIAPaCa-2 cells [2]; [7]): > 10000 nM | general tyrosine kinase activity compared to control [6]: did not cause a significant change | Selectivite Index (SI), MCF-10F/Beas2b (Table 1) (MCF-10F/Beas2b cells): > 11.23 | selectivity index (A498 cells [4]; MCF-10F/Beas2b vs A498): > 11 | IC50 (A498 cells [4]; [8]): 0.89 µM | IC50 (CAKI-1 cells; [8]): 4.98 µM
